Assays:
Assay in all cases: KiNativ chemical proteomics profiling in HeLa and PC3 cell lysates
[1] = molecular target: T1, selected panels of kinases in HeLa and PC3 cell lysates (Homo sapiens, UniProt P25098); assay type: binding; conditions: 10 uM; proteome HEL; peptide DLk[…]; labeling site Lys2
T1 construct: endogenous in cells; host or cells: HeLa and PC3 cell lysates

[2] = molecular target: T2, selected panels of kinases in HeLa and PC3 cell lysates (Homo sapiens, UniProt Q9Y6R4); assay type: binding; conditions: 10 uM, peptide DIk[…], labeling site Lys2
T2 construct: endogenous in cells; host or cells: HeLa and PC3 cell lysates

[3] = tested on: selected panels of kinases in HeLa and PC3 cell lysates; assay type: binding, human; conditions: 10 uM; for % Inhibition PI4KA,PI4KAP2: peptide SGTPMQSAAkAPYLAK, labeling site ATP; for % Inhibiton, MAP3K2,MAP3K3: peptide DIkGANILR; for % Inhibiton, IKKe,TBK1: peptide DIkPGNIMR; for % Inhibiton, JNK1,JNK2,JNK3: peptide DLkPSNIVVK; for % Inhibiton, MAP2K1,MAP2K2: peptide DVkPSNILVNSR
[4] = molecular target: T3, selected panels of kinases in HeLa and PC3 cell lysates (Homo sapiens, UniProt O95835); assay type: binding; conditions: 10 uM; proteome HEL; peptide ALYATkTLR; labeling site Lys1
T3 construct: endogenous in cells; host or cells: HeLa and PC3 cell lysates

[5] = molecular target: T4, selected panels of kinases in HeLa and PC3 cell lysates (Homo sapiens, UniProt P45985); assay type: binding; conditions: 10 uM, proteome PC3
T4 construct: endogenous in cells; host or cells: HeLa and PC3 cell lysates
T4 sequence (P45985 1-399): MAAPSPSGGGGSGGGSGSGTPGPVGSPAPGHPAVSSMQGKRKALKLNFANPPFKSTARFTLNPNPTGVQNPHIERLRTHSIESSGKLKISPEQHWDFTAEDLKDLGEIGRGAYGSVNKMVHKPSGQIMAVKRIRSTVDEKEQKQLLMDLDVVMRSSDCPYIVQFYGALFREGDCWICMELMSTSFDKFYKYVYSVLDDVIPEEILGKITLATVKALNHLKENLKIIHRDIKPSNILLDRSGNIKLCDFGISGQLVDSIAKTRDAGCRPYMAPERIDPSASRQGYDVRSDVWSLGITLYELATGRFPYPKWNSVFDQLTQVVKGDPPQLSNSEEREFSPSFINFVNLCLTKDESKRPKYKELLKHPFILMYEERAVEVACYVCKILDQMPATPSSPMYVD

[6] = molecular target: T5, selected panels of kinases in HeLa and PC3 cell lysates (Homo sapiens, UniProt Q96S38); assay type: binding; conditions: 10 uM; RSKL1 domain1; peptide VLGVIDkVLLVMDTR; proteome HEL; labeling site Protein Kinase Domain
T5 construct: endogenous in cells; host or cells: HeLa and PC3 cell lysates

[7] = molecular target: T6, selected panels of kinases in HeLa and PC3 cell lysates (Homo sapiens, UniProt P49840); assay type: binding; conditions: 10 uM; proteome HEL; peptide DIk[…]; labeling site Lys2
T6 construct: endogenous in cells; host or cells: HeLa and PC3 cell lysates

[8] = molecular target: T7, selected panels of kinases in HeLa and PC3 cell lysates (Homo sapiens, UniProt Q6PHR2); assay type: binding; conditions: 10 uM; ULK3; peptide EVVAIkCVAK; proteome HEL; labeling site Lys1
T7 construct: endogenous in cells; host or cells: HeLa and PC3 cell lysates

[9] = molecular target: T8, selected panels of kinases in HeLa and PC3 cell lysates (Homo sapiens, UniProt Q7KZI7); assay type: binding; conditions: 10 uM; proteome PC3; peptide EVAVk[…]; labeling site Lys1
T8 construct: endogenous in cells; host or cells: HeLa and PC3 cell lysates

[10] = molecular target: T9, selected panels of kinases in HeLa and PC3 cell lysates (Homo sapiens, UniProt Q8IVH8); assay type: binding; conditions: 10 uM; proteome PC3; peptide […]kVIK; labeling site Lys1
T9 construct: endogenous in cells; host or cells: HeLa and PC3 cell lysates

[11] = molecular target: T10, selected panels of kinases in HeLa and PC3 cell lysates (Homo sapiens, UniProt Q13188); assay type: binding; conditions: 10 uM, peptide […]k[…], labeling site Lys1
T10 construct: endogenous in cells; host or cells: HeLa and PC3 cell lysates
T10 sequence (Q13188 1-491): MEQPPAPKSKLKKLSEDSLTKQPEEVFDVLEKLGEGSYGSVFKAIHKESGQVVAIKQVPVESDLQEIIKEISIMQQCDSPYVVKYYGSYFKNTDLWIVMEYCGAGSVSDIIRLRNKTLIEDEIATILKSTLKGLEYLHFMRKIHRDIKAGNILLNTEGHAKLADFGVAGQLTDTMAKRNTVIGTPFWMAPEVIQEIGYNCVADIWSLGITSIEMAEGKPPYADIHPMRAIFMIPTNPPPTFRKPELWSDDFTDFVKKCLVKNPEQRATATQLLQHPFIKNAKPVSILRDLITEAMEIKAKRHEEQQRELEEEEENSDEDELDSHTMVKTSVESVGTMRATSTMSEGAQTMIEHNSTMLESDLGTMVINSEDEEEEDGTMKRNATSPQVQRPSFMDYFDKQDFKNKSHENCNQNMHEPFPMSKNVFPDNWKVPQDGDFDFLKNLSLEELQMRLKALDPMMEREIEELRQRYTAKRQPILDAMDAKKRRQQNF

[12] = molecular target: T11, selected panels of kinases in HeLa and PC3 cell lysates (Homo sapiens, UniProt P42338); assay type: binding; conditions: 10 uM; PIK3CB; peptide […]k[…]; proteome PC3; labeling site ATP
T11 construct: endogenous in cells; host or cells: HeLa and PC3 cell lysates

[13] = peptide DIk[…], proteome HEL, labeling site Lys2
[14] = peptide DIk[…], proteome PC3, labeling site Lys2
[15] = proteome HEL, labeling site Lys2
[16] = proteome HEL, peptide DLk[…], labeling site Lys2
[17] = proteome PC3, labeling site Lys2
[18] = proteome PC3, peptide DIk[…], labeling site Lys2
[19] = proteome PC3, peptide DLk[…], labeling site Lys2

T2 sequence (Q9Y6R4 whole entry): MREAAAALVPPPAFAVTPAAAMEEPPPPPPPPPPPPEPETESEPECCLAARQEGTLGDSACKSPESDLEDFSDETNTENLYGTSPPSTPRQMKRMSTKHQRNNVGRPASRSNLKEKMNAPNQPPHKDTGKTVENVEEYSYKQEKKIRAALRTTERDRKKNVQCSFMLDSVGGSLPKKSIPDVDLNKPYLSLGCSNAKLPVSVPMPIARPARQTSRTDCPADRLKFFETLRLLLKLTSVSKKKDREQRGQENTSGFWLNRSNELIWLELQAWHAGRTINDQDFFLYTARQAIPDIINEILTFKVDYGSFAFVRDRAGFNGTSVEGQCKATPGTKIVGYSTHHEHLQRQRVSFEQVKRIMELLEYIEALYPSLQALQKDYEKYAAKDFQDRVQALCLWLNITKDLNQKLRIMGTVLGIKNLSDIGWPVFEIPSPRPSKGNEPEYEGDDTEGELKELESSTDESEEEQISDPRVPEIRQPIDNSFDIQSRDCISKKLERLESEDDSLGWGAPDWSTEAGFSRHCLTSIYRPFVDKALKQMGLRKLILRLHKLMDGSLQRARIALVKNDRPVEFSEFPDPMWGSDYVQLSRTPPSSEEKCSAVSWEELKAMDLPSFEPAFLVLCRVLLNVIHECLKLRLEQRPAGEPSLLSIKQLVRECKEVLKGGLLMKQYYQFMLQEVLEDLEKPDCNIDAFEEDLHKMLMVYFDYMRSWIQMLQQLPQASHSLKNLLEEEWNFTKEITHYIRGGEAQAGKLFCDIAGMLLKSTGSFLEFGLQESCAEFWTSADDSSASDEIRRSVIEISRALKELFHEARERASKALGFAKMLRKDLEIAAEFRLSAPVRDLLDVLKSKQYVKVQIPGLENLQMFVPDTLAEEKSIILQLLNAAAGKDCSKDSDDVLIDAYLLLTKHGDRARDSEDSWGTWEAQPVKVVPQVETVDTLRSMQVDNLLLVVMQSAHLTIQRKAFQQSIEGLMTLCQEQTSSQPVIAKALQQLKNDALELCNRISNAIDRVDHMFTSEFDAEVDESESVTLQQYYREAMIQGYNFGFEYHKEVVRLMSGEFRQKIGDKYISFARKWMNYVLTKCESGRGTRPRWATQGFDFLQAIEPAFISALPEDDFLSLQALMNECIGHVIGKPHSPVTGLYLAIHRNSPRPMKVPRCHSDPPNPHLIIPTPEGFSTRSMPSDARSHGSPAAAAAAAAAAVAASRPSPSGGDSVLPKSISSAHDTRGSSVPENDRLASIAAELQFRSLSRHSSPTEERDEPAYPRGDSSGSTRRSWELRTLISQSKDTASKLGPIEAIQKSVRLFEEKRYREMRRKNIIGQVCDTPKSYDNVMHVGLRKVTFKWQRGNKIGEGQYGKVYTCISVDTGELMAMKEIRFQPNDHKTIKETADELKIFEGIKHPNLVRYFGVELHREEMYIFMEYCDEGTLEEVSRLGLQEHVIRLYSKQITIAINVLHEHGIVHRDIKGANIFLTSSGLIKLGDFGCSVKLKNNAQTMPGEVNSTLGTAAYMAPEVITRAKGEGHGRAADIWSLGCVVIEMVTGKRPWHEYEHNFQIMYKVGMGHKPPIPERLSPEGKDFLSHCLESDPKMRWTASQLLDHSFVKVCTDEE
T9 sequence (Q8IVH8 whole entry): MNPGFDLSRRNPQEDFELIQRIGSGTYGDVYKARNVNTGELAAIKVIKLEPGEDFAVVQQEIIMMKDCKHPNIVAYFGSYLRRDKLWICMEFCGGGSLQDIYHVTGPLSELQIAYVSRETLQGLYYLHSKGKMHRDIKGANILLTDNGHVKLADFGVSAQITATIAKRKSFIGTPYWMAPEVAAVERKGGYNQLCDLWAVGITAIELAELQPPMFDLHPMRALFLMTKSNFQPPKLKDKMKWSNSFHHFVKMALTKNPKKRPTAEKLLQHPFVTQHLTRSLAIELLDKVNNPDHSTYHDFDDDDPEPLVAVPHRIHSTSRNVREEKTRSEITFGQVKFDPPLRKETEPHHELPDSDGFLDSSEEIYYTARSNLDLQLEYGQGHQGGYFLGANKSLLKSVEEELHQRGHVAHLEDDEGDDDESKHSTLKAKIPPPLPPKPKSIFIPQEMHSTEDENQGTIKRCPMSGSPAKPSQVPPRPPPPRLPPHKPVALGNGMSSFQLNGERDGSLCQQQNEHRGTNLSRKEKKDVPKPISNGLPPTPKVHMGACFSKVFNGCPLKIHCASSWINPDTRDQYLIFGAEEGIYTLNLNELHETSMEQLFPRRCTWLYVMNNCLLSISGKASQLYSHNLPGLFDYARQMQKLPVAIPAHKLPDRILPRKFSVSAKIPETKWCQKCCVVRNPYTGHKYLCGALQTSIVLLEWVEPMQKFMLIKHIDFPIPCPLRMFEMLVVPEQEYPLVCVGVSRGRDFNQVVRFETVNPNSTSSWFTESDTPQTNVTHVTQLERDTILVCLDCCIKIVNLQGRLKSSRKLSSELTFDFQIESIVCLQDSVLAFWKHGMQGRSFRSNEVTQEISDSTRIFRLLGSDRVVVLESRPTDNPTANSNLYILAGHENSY
T3 sequence (O95835 whole entry): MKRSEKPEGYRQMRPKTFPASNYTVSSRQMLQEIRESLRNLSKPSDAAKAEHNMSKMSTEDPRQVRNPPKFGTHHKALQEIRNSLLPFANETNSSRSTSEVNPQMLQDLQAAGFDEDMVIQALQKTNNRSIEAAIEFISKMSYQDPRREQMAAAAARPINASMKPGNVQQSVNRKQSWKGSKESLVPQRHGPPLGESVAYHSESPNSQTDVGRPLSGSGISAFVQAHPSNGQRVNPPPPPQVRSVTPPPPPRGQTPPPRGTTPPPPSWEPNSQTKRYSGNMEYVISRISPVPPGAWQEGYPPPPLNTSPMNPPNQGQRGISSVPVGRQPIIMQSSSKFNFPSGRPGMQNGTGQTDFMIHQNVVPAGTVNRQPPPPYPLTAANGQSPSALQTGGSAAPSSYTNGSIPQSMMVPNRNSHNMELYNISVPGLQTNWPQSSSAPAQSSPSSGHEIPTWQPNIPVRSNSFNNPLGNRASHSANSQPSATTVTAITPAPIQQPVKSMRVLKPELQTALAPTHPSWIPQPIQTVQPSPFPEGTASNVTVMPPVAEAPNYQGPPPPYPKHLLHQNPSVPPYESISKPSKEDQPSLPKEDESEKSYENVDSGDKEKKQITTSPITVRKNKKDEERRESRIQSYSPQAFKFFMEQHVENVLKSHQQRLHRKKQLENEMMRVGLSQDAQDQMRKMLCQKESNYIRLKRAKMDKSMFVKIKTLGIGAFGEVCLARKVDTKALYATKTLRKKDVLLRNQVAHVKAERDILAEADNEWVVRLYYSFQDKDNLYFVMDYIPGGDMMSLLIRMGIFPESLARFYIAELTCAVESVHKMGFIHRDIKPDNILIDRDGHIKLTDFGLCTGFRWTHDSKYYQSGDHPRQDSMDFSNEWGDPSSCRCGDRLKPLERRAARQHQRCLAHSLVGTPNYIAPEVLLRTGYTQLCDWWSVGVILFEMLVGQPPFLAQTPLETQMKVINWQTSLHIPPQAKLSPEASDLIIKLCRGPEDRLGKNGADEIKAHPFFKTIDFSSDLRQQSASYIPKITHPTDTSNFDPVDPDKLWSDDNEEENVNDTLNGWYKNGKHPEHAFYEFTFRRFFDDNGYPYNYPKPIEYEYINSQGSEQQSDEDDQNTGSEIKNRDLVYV
T1 sequence (P25098 whole entry): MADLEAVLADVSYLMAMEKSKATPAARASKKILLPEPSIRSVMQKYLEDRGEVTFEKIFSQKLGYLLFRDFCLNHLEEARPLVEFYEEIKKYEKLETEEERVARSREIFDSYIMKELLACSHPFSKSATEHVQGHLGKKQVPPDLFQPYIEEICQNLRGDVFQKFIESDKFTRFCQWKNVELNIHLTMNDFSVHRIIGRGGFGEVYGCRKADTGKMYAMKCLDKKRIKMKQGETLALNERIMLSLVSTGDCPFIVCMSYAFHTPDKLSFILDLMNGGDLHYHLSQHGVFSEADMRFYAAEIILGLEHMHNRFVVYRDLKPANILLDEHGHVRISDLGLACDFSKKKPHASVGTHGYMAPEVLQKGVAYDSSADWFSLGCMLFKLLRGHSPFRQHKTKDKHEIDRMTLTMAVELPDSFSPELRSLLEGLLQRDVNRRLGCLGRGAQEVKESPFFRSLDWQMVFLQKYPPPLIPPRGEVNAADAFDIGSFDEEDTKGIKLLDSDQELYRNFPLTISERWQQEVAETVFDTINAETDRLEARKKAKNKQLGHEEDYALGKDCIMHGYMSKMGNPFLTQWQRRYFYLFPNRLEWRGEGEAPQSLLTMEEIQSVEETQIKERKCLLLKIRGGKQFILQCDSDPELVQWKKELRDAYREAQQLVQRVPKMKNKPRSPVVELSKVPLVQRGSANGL
T6 sequence (P49840 whole entry): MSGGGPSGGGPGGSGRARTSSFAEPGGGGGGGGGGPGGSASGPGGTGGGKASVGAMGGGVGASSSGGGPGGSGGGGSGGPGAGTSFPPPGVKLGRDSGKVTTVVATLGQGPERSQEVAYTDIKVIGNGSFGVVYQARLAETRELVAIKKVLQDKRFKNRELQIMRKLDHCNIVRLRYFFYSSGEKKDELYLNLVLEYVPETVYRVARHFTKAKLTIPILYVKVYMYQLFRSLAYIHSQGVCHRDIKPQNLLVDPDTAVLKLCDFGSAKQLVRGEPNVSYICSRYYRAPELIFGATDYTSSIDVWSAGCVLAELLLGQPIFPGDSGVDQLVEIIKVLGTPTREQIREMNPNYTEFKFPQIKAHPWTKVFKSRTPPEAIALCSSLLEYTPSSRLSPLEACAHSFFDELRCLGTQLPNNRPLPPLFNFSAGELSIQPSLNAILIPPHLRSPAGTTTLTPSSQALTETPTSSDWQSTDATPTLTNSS

For CCOc1cc(C(=O)N2CCC(N3CCN(C)CC3)CC2)ccc1Nc1ncc2c(n1)N(C1CCCC1)c1ccccc1C(=O)N2C [Compound 26], the “% Inhibiton, BARK1” value [1] was 10.9%, the “% Inhibiton, MAP3K4” value ([2]; proteome HEL) was -12% and the “% Inhibiton, MAP3K4” value ([2]; proteome PC3) was -1.2%. The “% Inhibition PI4KA,PI4KAP2” value ([3]; proteome HEL) was -4.3%, the “% Inhibition PI4KA,PI4KAP2” value ([3]; proteome PC3) was -19.2% and the “% Inhibition PKCa,PKCb” value ([3]; PKCa,PKCb, peptide DLk[…], proteome PC3, labeling site Lys2) was -2.9%. For the same compound, the “% Inhibition PKD1,PKD2” value ([3]; PKD1,PKD2, peptide NIVHCDLk[…], proteome HEL, labeling site Lys2) was 16.4%, the “% Inhibition ROCK1,ROCK2” value ([3]; ROCK1,ROCK2, peptide DVkPDNMLLDK, proteome PC3, labeling site Lys2) was -4.8% and the “% Inhibition RSK1,RSK2 domain1” value ([3]; RSK1,RSK2 domain1, peptide DLk[…], proteome HEL, labeling site Lys2) was 13.4%. The “% Inhibition RSK1,RSK4 domain1” value ([3]; RSK1,RSK4 domain1, peptide VLGQGSFGkVFLVR, proteome HEL, labeling site ATP Loop) was 0.4%, the “% Inhibition SRPK1,SRPK2” value ([3]; SRPK1,SRPK2, peptide FVAMkVVK, proteome PC3, labeling site Lys1) was -3.7% and the “% Inhibition TAO1,TAO3” value [3, 13] was -15.8%. The “% Inhibition TAO1,TAO3” value [3, 14] was 1.7%, the “% Inhibition Wnk1,Wnk2,Wnk3” value ([3]; Wnk1,Wnk2,Wnk3, peptide DLk[…], proteome HEL, labeling site Lys2) was 1.8% and the “% Inhibition Wnk1,Wnk2,Wnk4” value ([3]; Wnk1,Wnk2,Wnk4, peptide IGDLGLATLkR, proteome PC3, labeling site Activation Loop) was -6.2%. The “% Inhibition ZC1/HGK,ZC2/TNIK,ZC3/MINK” value [3, 13] was -1.1%, the “% Inhibition ZC1/HGK,ZC2/TNIK,ZC3/MINK” value [3, 14] was -12.1% and the “% Inhibition p70S6K,p70S6Kb” value ([3]; p70S6K,p70S6Kb, peptide GGYGkVFQVR, proteome PC3, labeling site ATP Loop) was -1%. The “% Inhibiton, MAP3K2,MAP3K3” value [3, 15] was -4.4%, the “% Inhibiton, IKKe,TBK1” value [3, 15] was -55% and the “% Inhibiton, NEK6,NEK7” value ([3]; proteome HEL, peptide DIk[…], labeling site Lys2) was 6.4%. For the same compound, the “% Inhibiton, JNK1,JNK2,JNK3” value [3, 15] was 14%, the “% Inhibiton, AMPKa1,AMPKa2” value [3, 16] was -22.8% and the “% Inhibiton, MARK2,MARK3” value [3, 16] was -16.8%. For the same compound, the “% Inhibiton, MAST2,MAST4” value [3, 16] was -23.7%, the “% Inhibiton, p38d,p38g” value [3, 16] was -11.7% and the “% Inhibiton, MAP2K1,MAP2K2” value [3, 15] was 17.5%. The “% Inhibiton, MYO3A,MYO3B” value ([3]; proteome HEL, peptide DVk[…], labeling site Lys2) was 11.5%, the “% Inhibiton, BMX,BTK” value ([3]; proteome HEL, peptide GQYDVAIkMIK, labeling site Lys1) was -22.5% and the “% Inhibiton, MAP3K5,MAP3K6,MAP3K7” value ([3]; proteome HEL, peptide IAIkEIPERDSR, labeling site Lys1) was 2%. For the same compound, the “% Inhibiton, KSR1,KSR2” value ([3]; proteome HEL, peptide SkNVFYDNGK, labeling site Protein Kinase Domain) was 12.3%, the “% Inhibiton, AMPKa1,AMPKa2” value ([3]; proteome HEL, peptide VAVkILNR, labeling site Lys1) was 6% and the “% Inhibiton, MSK1,MSK2 domain1” value ([3]; proteome HEL, peptide VLGTGAYGkVFLVR, labeling site ATP Loop) was 7.4%. The “% Inhibiton, ABL,ARG” value ([3]; proteome HEL, peptide […]kFPIK, labeling site Activation Loop) was -6.4%, the “% Inhibiton, MAP3K2,MAP3K3” value [3, 17] was 5.5% and the “% Inhibiton, IKKe,TBK1” value [3, 17] was -4.6%. For the same compound, the “% Inhibiton, MST1,MST2” value [3, 18] was -5.4%, the “% Inhibiton, MST4,YSK1” value [3, 18] was 0.5% and the “% Inhibiton, NEK6,NEK7” value [3, 18] was -4.6%. For the same compound, the “% Inhibiton, CaMK2a,CaMK2b,CaMK2d,CaMK2g” value ([3]; proteome PC3, peptide DLkPENLLLASK, labeling site Lys2) was -3.7%, the “% Inhibiton, JNK1,JNK2,JNK3” value [3, 17] was 12.2% and the “% Inhibiton, AMPKa1,AMPKa2” value [3, 19] was 12.1%. For the same compound, the “% Inhibiton, CDK11,CDK8” value [3, 19] was 7.9%, the “% Inhibiton, MARK2,MARK3” value [3, 19] was 3.7% and the “% Inhibiton, p38d,p38g” value [3, 19] was 8.3%. For the same compound, the “% Inhibiton, MAP2K1,MAP2K2” value [3, 17] was 7.9%, the “% Inhibiton, CK1d,CK1e” value ([3]; proteome PC3, peptide DVk[…], labeling site Lys2) was 13% and the “% Inhibiton, MARK3,MARK4” value ([3]; proteome PC3, peptide EVAIkIIDK, labeling site Lys1) was 0.6%. For the same compound, the “% Inhibiton, FYN,SRC,YES” value ([3]; proteome PC3, peptide QGAk[…], labeling site Activation Loop) was 5.5%, the “% Inhibiton, AMPKa1,AMPKa2” value ([3]; proteome PC3, peptide VAVkILNR, labeling site Lys1) was 6.9% and the “% Inhibiton, LATS1” value [4] was 6.8%. The “% Inhibiton, MAP2K4” value ([5]; peptide DIkPSNILLDR, labeling site Lys2) was -14.4%, the “% Inhibiton, MAP2K4” value ([5]; peptide […]kR, labeling site Lys1) was -7.3% and the “% Inhibition RSKL1 domain1” value [6] was -6.2%. For the same compound, the “% Inhibiton, GSK3A” value [7] was 10.2%, the “% Inhibition ULK3” value [8] was 2.5% and the “% Inhibiton, MARK2” value [9] was 16.8%. The “% Inhibiton, KHS2” value [10] was -3.3%, the “% Inhibiton, MST2” value ([11]; proteome HEL) was 10.8% and the “% Inhibiton, MST2” value ([11]; proteome PC3) was -9.4%. The “% Inhibition PIK3CB” value [12] was -124.1%.

From PMC3914206
